Source: patent US10689359B2, “Crystals of quinazoline derivative and preparation method therefor” (Xuanzhu Pharma Co., Ltd., priority 2015, dated 2020)
Read-outs that look alike come from different tables or passages of the source.

Legend:
[1] = Evaluation on pharmacokinetics in SD rats, intragastric administration; format: in vivo; settings: 5 mg/kg
Description: An amorphous form of a compound of Formula (I), the preparation method of which could be found in the particular Examples as disclosed in the international patent application (Publication No. WO 2012027960 A1).
Test animal: SD rats, male, weighed 190-250 g, 6 rats for each crystal form, purchased from Beijing Vital River Laboratory Animal Technology Co., Ltd.
Administration route: intragastric administration, at an administration dose of 5 mg/kg, and an administration volume of 10 mL/kg.
Blood collection: whole blood (about 100 μL) was collected from tail vein 10 min, 30 min, 1 h, 2 h, 4 h, 6 h, 8 h, and 24 h after administration, and added to K2EDTA-containing anticoagulation tubes. The whole blood sample was centrifuged for 6 min at 4° C., 8000 rpm in a high speed centrifuge, and plasma was separated. Plasma needed to be prepared within 30 min after blood collection, and stored at −80° C. in a refrigerator.
Plasma sample analysis: the plasma samples were analyzed by protein precipitation: to plasma (20 μL), an internal standard Gefitinib (200 μL, 50 ng/mL acetonitrile solution) was added; the resultant mixture was vortexed at 500 rpm for 5 min, and centrifuged at 4000 rpm for 20 min in a high speed centrifuge; to the supernatant (100 μL), water (100 μL) was added; the resultant mixture was mixed homogeneously under vortexing and analyzed by LC-MS/MS for blood concentration.
Calculation for PK parameters: PK parameters were calculated by using Pharsight Phoenix 6.2 software.

[2] = Comparison of stability between crystal forms and amorphous form, 60° C. uncovered, relevant substances by HPLC; format: physicochemical; settings: for Change in total relevant substances (conclusion) / Increase of total relevant substances: 60° C. uncovered; for Change in total relevant substances (conclusion): 5 days and 10 days
Description: Instrument: High Performance Liquid Chromatographic Instrument (Agilent 1260 series) Chromatographic column: chromatographic column using octylsilane chemically bonded silica as filler (HC-C8, 4.6×250 mm, 5 μm) Column temperature: 30° C. Detection wavelength: 230 nm Mobile phase: Mobile phase consisting of 0.06 mol/L sodium dihydrogen phosphate/0.06 mol/L sodium perchlorate solution-acetonitrile, and reversed-phase gradient elution was employed. Flow rate: 1.0 mL/min Injection volume: 10 μL

[3] = Study on stability of Crystal form I, II and III (influencing factors; character, moisture content, relevant substances by HPLC, XRPD); format: physicochemical; settings: for Increase of moisture content: 10 days vs Day 0
Description: The samples were tested for character, relevant substances, moisture content, XRPD pattern, etc. […] The samples were tested for relevant substances, content, character, moisture content, XRPD pattern, etc. During the study, the uncovered experimental samples were kept in cultured dishes in the air. […] During the study, the uncovered experimental samples were kept in cultured dishes in the air. […] With respect to relevant substances, in accordance with High Performance Liquid Chromatography in Appendix V D in Pharmacopoeia of the People's Republic of China (2010), the samples were determined by area normalization method. Instrument: High Performance Liquid Chromatographic Instrument (Agilent 1200/1260 series) Chromatographic column: chromatographic column using octylsilane chemically bonded silica as filler (HC-C8, 4.6×250 mm, 5 μm) Column temperature: 30° C. Detection wavelength: 230 nm Mobile phase: mobile phase consisting of 0.03 mol/L diammonium hydrogen phosphate/0.03 mol/L sodium perchlorate solution-acetonitrile, and reversed-phase gradient elution was employed. Flow rate: 1.0 mL/min Injection volume: 10 μL Method for determining moisture content: the moisture content was determined in accordance with First Method for Determining Moisture Content B (Coulometric Titration) in Appendix VIII M in Pharmacopoeia of the People's Republic of China (2010).

[4] = 10 days, 40° C./RH75% uncovered

C=CC(=O)Nc1cc2c(Nc3ccc(F)c(Cl)c3)ncnc2cc1OCC1CC2(CCN(C)CC2)C1 [Amorphous form, N-(4-((3-chloro-4-fluorophenyl)amino)-7-((7-methyl-7-azaspiro[3.5]nonan-2-yl)methoxy)quinazolin-6-yl)acrylamide]
Cmax and exposure amount (AUC) compared with Crystal form I, II and III [1]: significantly lower
In vivo half-life compared with Crystal form I, II and III [1]: shorter
AUC(0-inf) ([1]; male, SD, rat, plasma, po, suspension in water): 1150 ng·h/mL
AUC0-t ([1]; male, SD, rat, plasma, po, suspension in water, read-out: AUC0-t): 1140 ng·h/mL
Cmax ([1]; male, SD, rat, plasma, po, suspension in water, read-out: Cmax (maximum blood concentration)): 105 ng/mL
half-life ([1]; male, SD, rat, plasma, po, suspension in water, read-out: T1/2 (drug elimination half-life) (converted)): 3.08 h
Tmax ([1]; male, SD, rat, plasma, po, suspension in water, read-out: Tmax (time to maximum blood concentration)): 4 h
Total relevant substances ([2]; 0 day): 1.1%
Change in total relevant substances (conclusion) [2]: rapid increase in total relevant substances
Increase of total relevant substances ([2]; 5 days vs Day 0): 1.3%
Increase of total relevant substances ([2]; 10 days vs Day 0): 2.1%
Total relevant substances ([2]; 60° C. uncovered-5 days): 2.4%
Total relevant substances ([2]; 60° C. uncovered-10 days): 3.2%

C=CC(=O)Nc1cc2c(Nc3ccc(F)c(Cl)c3)ncnc2cc1OCC1CC2(CCN(C)CC2)C1 [Crystal form I, N-(4-((3-chloro-4-fluorophenyl)amino)-7-((7-methyl-7-azaspiro[3.5]nonan-2-yl)methoxy)quinazolin-6-yl)acrylamide]
Character ([3]; 0 day): light yellow
Crystal form ([3]; 0 day): crystal-
Moisture content ([3]; 0 day): 5.0%
Relevant substance ([3]; 0 day): 0.78%
Change in impurities ([3]; 60° C.-uncovered, UV light, 10 days): increased to some extent
Character ([3]; 5 days, 40° C./RH75% covered): light yellow
Crystal form ([3]; 5 days, 40° C./RH75% covered): the same
Moisture content ([3]; 5 days, 40° C./RH75% covered): 5.1%
Relevant substance ([3]; 5 days, 40° C./RH75% covered): 0.74%
Character ([3]; 5 days, 40° C./RH75% uncovered): light yellow
Crystal form ([3]; 5 days, 40° C./RH75% uncovered): the same
Moisture content ([3]; 5 days, 40° C./RH75% uncovered): 5.4%
Relevant substance ([3]; 5 days, 40° C./RH75% uncovered): 0.76%
Character ([3]; 5 days, 60° C. covered): light yellow
Crystal form ([3]; 5 days, 60° C. covered): the same
Moisture content ([3]; 5 days, 60° C. covered): 5.0%
Relevant substance ([3]; 5 days, 60° C. covered): 0.75%
Character ([3]; 5 days, 60° C. uncovered): light yellow
Crystal form ([3]; 5 days, 60° C. uncovered): the same
Moisture content ([3]; 5 days, 60° C. uncovered): 4.9%
Relevant substance ([3]; 5 days, 60° C. uncovered): 1.3%
Character ([3]; 5 days, RH-75%): light yellow
Crystal form ([3]; 5 days, RH-75%): the same
Moisture content ([3]; 5 days, RH-75%): 5.5%
Relevant substance ([3]; 5 days, RH-75%): 0.78%
Character ([3]; 5 days, RH-92.5%): light yellow
Crystal form ([3]; 5 days, RH-92.5%): the same
Moisture content ([3]; 5 days, RH-92.5%): 5.5%
Relevant substance ([3]; 5 days, RH-92.5%): 0.78%
Character ([3]; 5 days, visible light): light yellow
Crystal form ([3]; 5 days, visible light): the same
Moisture content ([3]; 5 days, visible light): 5.1%
Relevant substance ([3]; 5 days, visible light): 0.74%
Character ([3]; 10 days, 40° C./RH75% covered): light yellow
Crystal form ([3]; 10 days, 40° C./RH75% covered): the same
Moisture content ([3]; 10 days, 40° C./RH75% covered): 4.9%
Relevant substance ([3]; 10 days, 40° C./RH75% covered): 0.73%
Character [3, 4]: light yellow
Crystal form [3, 4]: the same
Moisture content [3, 4]: 5.2%
Relevant substance [3, 4]: 0.79%
Character ([3]; 10 days, 60° C. covered): light yellow
Crystal form ([3]; 10 days, 60° C. covered): the same
Moisture content ([3]; 10 days, 60° C. covered): 4.8%
Relevant substance ([3]; 10 days, 60° C. covered): 0.78%
Character ([3]; 10 days, 60° C. uncovered): light yellow
Crystal form ([3]; 10 days, 60° C. uncovered): the same
Moisture content ([3]; 10 days, 60° C. uncovered): 4.6%
Relevant substance ([3]; 10 days, 60° C. uncovered): 1.4%
Character ([3]; 10 days, RH-75%): light yellow
Crystal form ([3]; 10 days, RH-75%): the same
Moisture content ([3]; 10 days, RH-75%): 5.7%
Relevant substance ([3]; 10 days, RH-75%): 0.70%
Character ([3]; 10 days, RH-92.5%): light yellow
Crystal form ([3]; 10 days, RH-92.5%): the same
Moisture content ([3]; 10 days, RH-92.5%): 5.8%
Relevant substance ([3]; 10 days, RH-92.5%): 0.79%
Character ([3]; 10 days, UV light): light yellow
Crystal form ([3]; 10 days, UV light): the same
Moisture content ([3]; 10 days, UV light): 5.2%
Relevant substance ([3]; 10 days, UV light): 0.89%
Increase of moisture content ([3]; high moisture RH-75%): 0.7%
Increase of moisture content ([3]; high moisture RH-92.5%): 0.8%
Stability of the samples (conclusion) ([3]; influencing factor conditions (high temperature, high moisture, light), 10 days): relatively stable
Pharmacokinetic properties (conclusion) [1]: good pharmacokinetic properties
AUC0-t ([1]; suspension in water): 1404 ng·h/mL
AUCinf ([1]; suspension in water): 1414 ng·h/mL
Cmax (maximum blood concentration) ([1]; suspension in water): 134 ng/mL
T1/2 (drug elimination half-life) ([1]; suspension in water): 3.16 h
Tmax (time to maximum blood concentration) ([1]; suspension in water): 4 h
Total relevant substances ([2]; 0 day): 0.23%
Change in total relevant substances (conclusion) [2]: little increase in total relevant substances
Total relevant substances ([2]; 60° C. uncovered-5 days): 0.48%
Total relevant substances ([2]; 60° C. uncovered-10 days): 0.47%
